Measured values published in US6770593B1, “Fertilizer” (Mandops (UK) Limited, priority 1999, dated 2004).

What was measured:
Assay type in all cases: in vivo
[1] = tested on: Spring Barley; test: Tillers of spring barley, with chlormequat at T1 and T2 (Table E2); details: applied at T1 (3 leaves stage) & T2 (prior to start of stem extension), CCC 0.8 l/ha, ATS 0.8 l/ha, KS 20 g/ha
[2] = tested on: Powdery Mildew; test: Powdery mildew on spring barley, with chlormequat at T1 and T2 (Table E2); details: applied at T1 (3 leaves stage) & T2 (prior to start of stem extension), CCC 0.8 l/ha, ATS 0.8 l/ha, KS 20 g/ha
[3] = tested on: Powdery Mildew; test: Powdery mildew on spring barley, with chlormequat (Table E1); details: applied at 3 leaves stage, CCC 1.25 l/ha, ATS 1.25 l/ha, KS 20 g/ha
[4] = tested on: Spring Barley; test: Growth of spring barley, with chlormequat (Table E1); details: applied at 3 leaves stage, CCC 1.25 l/ha, ATS 1.25 l/ha, KS 20 g/ha

C[N+](C)(C)CCCl.[Cl-] [CCC, Chlormequat]
Number of Tillers Initiated per Plant (mean of 10 plants) [1]: 3.5 | Powdery Mildew (%) at +12 days [2]: 8% | Powdery Mildew (%) at +15 days [2]: 8% | Powdery Mildew (%) at +18 days [2]: 10% | Powdery Mildew (%) at +15 days [3]: 15% | Above Ground Dry Weight (g) Total of 10 plants [4]: 3.7 g | Above Ground Fresh Weight (g) Total of 10 plants [4]: 34.0 g | Amount of Rooting (0-9) Mean of 10 plants [4]: 5.5
